For experiment [1], the system named is phospho-cdc2 (Tyr15) in HT-29 cells. As to the kind of experiment: Effect on phosphorylation of cdc2 at Tyr15, PathScan ELISA (Method 2). The class given is cell-based. The following applies: Homo sapiens, 8 h, eight hours incubation, read-out: HT29 pCDC2 method 2. How it is done:
Method 2: Determining the Effect of Compounds on the phosphorylation of cdc2 at Tyr15
The colorectal cancer cell lines HT-29 and HCT-116 were purchased from the ATCC and routinely maintained in McCoy's Medium (Invitrogen) supplemented with 10% Foetal Calf Serum.
The cells were trypsinised from their growing vessel and counted, 100 μL of cell suspension containing 6000 cells was pipetted into black 96 well Co-star plates and incubated overnight to allow adherence to the surface at a temperature of 37° C. and an atmosphere of 5% CO2. Test compounds were formulated in DMSO and diluted in foetal calf serum supplemented medium. Incubating medium was removed by aspiration and diluted drug supplemented medium added to each well.
The plate was returned to the incubator for an additional eight hours at 37° C. and an atmosphere of 5% CO2. Post incubation, the drug supplemented medium was aspirated from each well and the cells were washed once in ice-cold phosphate buffered saline (PBS). 100 μL of cell lysis buffer (Cell Signalling Technologies #9803) containing 20 mM Tris, 150 mM NaCl, 1 mM EDTA, 1 mM EGTA, 1% Triton-X100, 2.5 mM sodium pyrophosphate, 1 mM glycerophosphate, 1 mM Na3VO4 and 1 μg/mL leupeptin was added to each well of the 96 well plate and incubated at 4° C. for 30 min. The samples on the plate were snap frozen at −80° C. until required. Immediately before the continuation of the assay, the sample plate was thawed and centrifuged at 4° C. for 10 min and the supernatant transferred to secondary tubes or 96 well plate.
Cell supernatant was mixed in a ratio of 1:1 with sample dilutent buffer and vortexed for one minute. 100 μL of diluted sample was pipetted into pre-coated plates containing a rabbit polyclonal antibody for phospho-cdc2 (Tyr15) (Cell Signalling Technologies PathScan kit #7176). The plate was sealed and incubated overnight at 4° C.
The plate seal was removed and the well contents aspirated, followed by 3×5 min washes with 200 μL of diluted wash buffer. Between each wash the plate was tapped firmly onto blotting paper to ensure the removal of all kit solution. 100 μL of kit detection antibody was added to each well and the plate re-sealed and incubated at 37° C. for 1 h. Post incubation the plate was washed and processed in a similar manner to that previously described.
100 μL of horseradish peroxidise-linked secondary antibody was added to each test well, the plate sealed and incubated for thirty minutes at 37° C. Post incubation, the plate was washed as previously stated, followed by the addition of 100 μL of 3,3′,5,5′ tetramethylbenzidine (TMB reagent). The plate was sealed and incubated at RT for 30 min.
100 μL of stop solution was added to each well and the underside of the plate wiped with a lint-free tissue, prior to spectrophotometric determination. Absorbance from each well was read at 450 nm within 30 min of the addition of the stop solution.
The percentage of phospho-cdc2 was calculated compared to DMSO control and plotted versus the concentration of inhibitor using GraphPad Prism. Data was fitted using non-linear regression analysis and IC50 values generated.
Background: ELISA stands for enzyme-linked immunosorbent assay.

Experiment [2] concerns the target T1, human ether a go-go related gene (hERG) K′ channel (Homo sapiens, UniProt Q12809).
T1 construct: Essen BioScience
As to the kind of experiment: hERG activity, IonWorks patch clamp electrophysiology (Method 6). In kind it is cell-based. How it is done: Method 6: Determination of hERG Activity
Compounds were tested for inhibition of the human ether a go-go related gene (hERG) K′ channel using IonWorks patch clamp electrophysiology at Essen BioScience. 8-Point concentration-response curves of the effect of compound on hERG current as a percentage of pre-compound signal were generated using 3-fold serial dilutions from 11 μM and results are reported as IC50 in μM.
(hERG is a cardiac potassium channel; its block is linked to QT prolongation.)

Consider 22 molecules from patent US9850247B2 (Almac Discovery Limited, priority 2013, dated 2017).

T1 sequence (Q12809 whole entry): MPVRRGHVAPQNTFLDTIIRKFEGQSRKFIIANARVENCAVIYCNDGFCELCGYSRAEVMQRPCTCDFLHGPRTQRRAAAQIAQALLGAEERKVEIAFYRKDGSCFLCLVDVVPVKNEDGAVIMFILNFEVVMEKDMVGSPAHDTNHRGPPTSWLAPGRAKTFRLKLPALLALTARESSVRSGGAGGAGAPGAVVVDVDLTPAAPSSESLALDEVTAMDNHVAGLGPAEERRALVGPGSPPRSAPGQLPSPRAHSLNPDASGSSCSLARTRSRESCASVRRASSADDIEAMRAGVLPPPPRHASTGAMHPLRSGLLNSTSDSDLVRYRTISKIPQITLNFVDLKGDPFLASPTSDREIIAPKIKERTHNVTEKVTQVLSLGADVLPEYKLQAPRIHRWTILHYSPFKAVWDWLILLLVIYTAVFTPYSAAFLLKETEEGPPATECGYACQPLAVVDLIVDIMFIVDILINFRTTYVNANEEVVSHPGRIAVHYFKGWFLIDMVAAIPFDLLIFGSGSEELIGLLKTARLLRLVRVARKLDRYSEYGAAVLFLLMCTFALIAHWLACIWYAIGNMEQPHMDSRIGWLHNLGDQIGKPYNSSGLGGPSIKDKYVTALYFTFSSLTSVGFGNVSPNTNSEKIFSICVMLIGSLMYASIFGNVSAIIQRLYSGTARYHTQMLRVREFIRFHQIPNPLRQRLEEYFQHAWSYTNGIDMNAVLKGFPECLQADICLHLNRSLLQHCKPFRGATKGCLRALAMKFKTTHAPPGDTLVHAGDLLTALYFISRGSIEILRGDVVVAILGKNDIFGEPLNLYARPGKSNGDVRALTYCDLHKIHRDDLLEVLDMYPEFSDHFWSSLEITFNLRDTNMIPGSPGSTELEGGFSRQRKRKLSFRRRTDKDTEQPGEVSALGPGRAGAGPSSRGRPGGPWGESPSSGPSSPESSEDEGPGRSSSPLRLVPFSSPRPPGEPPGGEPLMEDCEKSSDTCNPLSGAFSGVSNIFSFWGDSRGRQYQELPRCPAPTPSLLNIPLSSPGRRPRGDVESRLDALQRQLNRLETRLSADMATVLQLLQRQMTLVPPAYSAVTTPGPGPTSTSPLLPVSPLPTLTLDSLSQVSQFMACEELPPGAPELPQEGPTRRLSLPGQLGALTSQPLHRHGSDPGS

Regarding `COC[C@H]1CN(c2ccc(Nc3ncc4c(n3)N(C)CN(c3c(Cl)cccc3Cl)C4=O)cc2)CCN1` [Example 60, (R)-3-(2,6-dichlorophenyl)-7-((4-(3-(methoxymethyl)piperazin-1-yl)phenyl)amino)-1-methyl-2,3-dihydropyrimido[4,5-d]pyrimidin-4(1H)-one], the IC50 in experiment [1] is ≤ 100 nM. Still for that read-out and setting: under `CN1CN(c2c(Cl)cccc2Cl)C(=O)c2cnc(Nc3ccc4c(c3)CNCC4)nc21` [Example 14, 3-(2,6-Dichlorophenyl)-1-methyl-7-((1,2,3,4-tetrahydroisoquinolin-7-yl)amino)-2,3-dihydropyrimido[4,5-d]pyrimidin-4(1H)-one] stands ≤ 100 nM; under `CN1CCc2ccc(Nc3ncc4c(n3)N(C)CN(c3c(Cl)cccc3Cl)C4=O)cc2C1` [Example 22, 3-(2,6-Dichlorophenyl)-1-methyl-7-((2-methyl-1,2,3,4-tetrahydroisoquinolin-7-yl)amino)-2,3-dihydropyrimido[4,5-d]pyrimidin-4(1H)-one], ≤ 100 nM; under `C[C@@H]1CN[C@@H](C)CN1c1ccc(Nc2ncc3c(n2)N(C)CN(c2c(Cl)cccc2Cl)C3=O)cc1` [Example 40, 3-(2,6-dichlorophenyl)-7-((4-((2R,5S)-2,5-dimethylpiperazin-1-yl)phenyl)amino)-1-methyl-2,3-dihydropyrimido[4,5-d]pyrimidin-4(1H)-one], ≤ 100 nM. Take `Cc1cc(Nc2ncc3c(n2)N(C)CN(c2c(Cl)cccc2Cl)C3=O)ccc1N1CCNCC1` [Example 6, 3-(2,6-Dichlorophenyl)-1-methyl-7-((3-methyl-4-(piperazin-1-yl)phenyl)amino)-2,3-dihydropyrimido[4,5-d]pyrimidin-4(1H)-one]: the IC50 in experiment [2] was > 10000 nM; in experiment [1], ≤ 100 nM. As to `CN1CN(c2c(Cl)cccc2Cl)C(=O)c2cnc(Nc3ccc(N4CCN[C@@H](CO)C4)cc3)nc21` [Example 19, (R)-3-(2,6-Dichlorophenyl)-7-((4-(3-(hydroxymethyl)piperazin-1-yl)phenyl)amino)-1-methyl-2,3-dihydropyrimido[4,5-d]pyrimidin-4(1H)-one], the IC50 in experiment [1] fell in the range of 100 to 1000 nM. As to `C[C@H]1CN(c2ccc(Nc3ncc4c(n3)N(C)CN(c3c(Cl)cccc3Cl)C4=O)cc2)CCN1` [Example 17, (S)-3-(2,6-Dichlorophenyl)-1-methyl-7-((4-(3-methylpiperazin-1-yl)phenyl)amino)-2,3-dihydropyrimido[4,5-d]pyrimidin-4(1H)-one], in experiment [1], the IC50 was ≤ 100 nM. On the same count and under the same terms, under `COCc1cc(Nc2ncc3c(n2)N(C)CN(c2c(Cl)cccc2Cl)C3=O)ccc1N1CCN[C@H](C)C1` [Example 59, (R)-3-(2,6-dichlorophenyl)-7-((3-(methoxymethyl)-4-(3-methylpiperazin-1-yl)phenyl)amino)-1-methyl-2,3-dihydropyrimido[4,5-d]pyrimidin-4(1H)-one] stands 100 to 1000 nM; under `C[C@@H]1CN(c2ccc(Nc3ncc4c(n3)N(C)CN(c3c(Cl)cccc3Cl)C4=O)cc2)[C@@H](C)CN1` [Example 80, 3-(2,6-dichlorophenyl)-7-((4-((2S,5R)-2,5-dimethylpiperazin-1-yl)phenyl)amino)-1-methyl-2,3-dihydropyrimido[4,5-d]pyrimidin-4(1H)-one], ≤ 100 nM. Same read-out and setting: under `C[C@@H]1CN(c2ccc(Nc3ncc4c(n3)N(C)CN(c3c(F)cccc3Cl)C4=O)cc2)CCN1` [Example 53, (R)-3-(2-chloro-6-fluorophenyl)-1-methyl-7-((4-(3-methylpiperazin-1-yl)phenyl)amino)-2,3-dihydropyrimido[4,5-d]pyrimidin-4(1H)-one] stands ≤ 100 nM; under `[2H]C1([2H])N(C)c2nc(Nc3ccc(N4CCNCC4)cc3)ncc2C(=O)N1c1c(Cl)cccc1Cl` [Example 15, 3-(2,6-Dichlorophenyl)-2,2-dideutero-1-methyl-7-((4-(piperazin-1-yl)phenyl)amino)-2,3-dihydropyrimido[4,5-d]pyrimidin-4(1H)-one], ≤ 100 nM; under `CNCCOc1ccc(Nc2ncc3c(n2)N(C)CN(c2c(Cl)cccc2Cl)C3=O)cc1` [Example 2, 3-(2,6-Dichlorophenyl)-1-methyl-7-((4-(2-(methylamino)ethoxy)phenyl)amino)-2,3-dihydropyrimido[4,5-d]pyrimidin-4(1H)-one], 100 to 1000 nM. The same measure, in the same setting: under `CN1CN(c2c(Cl)cccc2Cl)C(=O)c2cnc(Nc3ccc(N4CCNCC4)c(C#N)c3)nc21` [Example 11, 3-(2,6-Dichlorophenyl)-7-((3-cyano-4-(piperazin-1-yl)phenyl)amino)-1-methyl-2,3-dihydropyrimido[4,5-d]pyrimidin-4(1H)-one] stands 100 to 1000 nM; under `C[C@@H]1CN(c2ccc(Nc3ncc4c(n3)N(C)CN(c3c(Cl)cccc3Cl)C4=O)cc2F)CCN1` [Example 43, (R)-3-(2,6-dichlorophenyl)-7-((3-fluoro-4-(3-methylpiperazin-1-yl)phenyl)amino)-1-methyl-2,3-dihydropyrimido[4,5-d]pyrimidin-4(1H)-one], 100 to 1000 nM; under `CN1CN(c2c(Cl)cccc2Cl)C(=O)c2cnc(Nc3ccc(N4CCN(C(=O)CN)CC4)cc3)nc21` [Example 13, 7-((4-(4-(2-Aminoacetyl)piperazin-1-yl)phenyl)amino)-3-(2,6-dichlorophenyl)-1-methyl-2,3-dihydropyrimido[4,5-d]pyrimidin-4(1H)-one], 100 to 1000 nM. As for `COCc1cc(Nc2ncc3c(n2)N(C)CN(c2c(Cl)cccc2Cl)C3=O)ccc1N1CCNCC1` [Example 31, 3-(2,6-dichlorophenyl)-7-((3-(methoxymethyl)-4-(piperazin-1-yl)phenyl)amino)-1-methyl-2,3-dihydropyrimido[4,5-d]pyrimidin-4(1H)-one], in experiment [1], the IC50 was 100 to 1000 nM.

`Cc1cc(Nc2ncc3c(n2)N(C)CN(c2c(Cl)cccc2Cl)C3=O)ccc1C1CCNCC1` [Example 18, 3-(2,6-Dichlorophenyl)-1-methyl-7-((3-methyl-4-(piperidin-4-yl)phenyl)amino)-2,3-dihydropyrimido[4,5-d]pyrimidin-4(1H)-one]: the IC50 in experiment [1] was in the range of 100 to 1000 nM. Still for that read-out and setting: under `CN1CN(c2c(Cl)cccc2Cl)C(=O)c2cnc(Nc3ccc(N4CC5CCC(C4)N5C)c(CO)c3)nc21` [Example 86, 3-(2,6-dichlorophenyl)-7-((3-(hydroxymethyl)-4-(8-methyl-3,8-diazabicyclo[3.2.1]octan-3-yl)phenyl)amino)-1-methyl-2,3-dihydropyrimido[4,5-d]pyrimidin-4(1H)-one] stands ≤ 100 nM; under `COc1cc(Nc2ncc3c(n2)N(C)CN(c2c(Cl)cccc2Cl)C3=O)ccc1N1CCNCC1` [Example 3, 3-(2,6-Dichlorophenyl)-7-((3-methoxy-4-(piperazin-1-yl)phenyl)amino)-1-methyl-2,3-dihydropyrimido[4,5-d]pyrimidin-4(1H)-one], 100 to 1000 nM; under `CN1CN(c2c(Cl)cccc2Cl)C(=O)c2cnc(Nc3ccc(N4CC5CCC(C4)N5)cc3)nc21` [Example 74, 7-((4-(3,8-diazabicyclo[3.2.1]octan-3-yl)phenyl)amino)-3-(2,6-dichlorophenyl)-1-methyl-2,3-dihydropyrimido [4,5-d]pyrimidin-4(1H)-one], 100 to 1000 nM.

Take `CC(C)N1CCN(c2ccc(Nc3ncc4c(n3)N(C)CN(c3c(Cl)cccc3Cl)C4=O)cc2CO)CC1` [Example 21, 3-(2,6-Dichlorophenyl)-7-((3-(hydroxymethyl)-4-(4-isopropylpiperazin-1-yl)phenyl)amino)-1-methyl-2,3-dihydropyrimido[4,5-d]pyrimidin-4(1H)-one]: the IC50 in experiment [1] is ≤ 100 nM. On the same count and under the same terms, under `CN1CN(c2c(F)cccc2Cl)C(=O)c2cnc(Nc3ccc(N4CCNCC4)cc3)nc21` [Example 25, 3-(2-Chloro-6-fluorophenyl)-1-methyl-7-((4-(piperazin-1-yl)phenyl)amino)-2,3-dihydropyrimido[4,5-d]pyrimidin-4(1H)-one] stands ≤ 100 nM.
